In patent publication US20240076347A1, “METHODS FOR PREVENTING FUNGAL INFECTIONS” (Cidara Therapeutics, Inc., priority 2016, published 2024):
Numbered stars: 1 amine (or outer) side, 2 acyl side, 3 side chain; on linkers, the order of the positions; unused ones are H or OH. Bridge positions count the residues as written; N and C are the ends. Square brackets hold non-standard residues; d marks the D form. Peptide text beside a SMILES is read from it. * marks the point of attachment. ξ: configuration not given here. Orn(4R-OH,5R-OCH2CH2NMe3+) = C[N+](C)(C)CCO[C@@H](N[*:3])[C@H](O)C[C@H](N[*:1])C(=O)[*:2]; pTerphenylCO(4''-OnC5H11) = CCCCCOc1ccc(-c2ccc(-c3ccc(C(=O)*)cc3)cc2)cc1; hTyr(3S-OH,4S-OH) = N[C@H](C(=O)O)[C@H](O)[C@@H](O)c1ccc(O)cc1; X1 = C[C@H]1CN([*:1])C(C(=O)[*:2])C1O; Hyp = O=C(O)[C@@H]1C[C@@H](O)CN1; ξT = CC(O)C(N)C(=O)O

System: C. albicans strain 529L
Assay: Rat model of vulvovaginal candidiasis, vaginal lavage and tissue burden
Format: in vivo, Candida albicans
Conditions: for reduction in terminal vaginal tissue burden: not statistically lower than vehicle
Description: Animal Strain. Wistar rats were supplied by Harlan Laboratories UK and were specific pathogen free. Rats weighed […] at the time of surgery. Ovariectomies were performed. Rats were allowed 4-7 days recovery before transportation to the facility where the experiment was to be performed. Following arrival, rats were allowed at least 4 days acclimatization before start of the experiment. Rats weighed 100-120 g at the time of ovariectomy and were about 300 g at start of the experiment.
Pre-conditioning. Female Wistar rats underwent ovariectomy at least 10 days prior to the study commencing. They were further pre-conditioned by treatment with 5 mg/kg 17-β-estradiol administered subcutaneously (SC) every other day on Days −7, −5, −3 and −1 prior to infection with C. albicans strain 529. Estradiol treatment continued every other day throughout the study to 7 days post-infection.
Yeast Isolate. Candida albicans strain 529L was used in this chronic rat vaginal infection model.
Infection. Yeast strains were inoculated aerobically onto Sabouraud dextrose agar media (SAB) containing 0.05 mg/mL chloramphenicol and incubated at 30° C. for 48-72 h. 18-24 h prior to infection, Yeast Peptone Dextrose (YPD) broths were inoculated with 2-3 isolated colonies from agar plates and incubated overnight (37° C. on an orbital shaker). Broths containing C. albicans strain 529L were washed 3 times with sterile phosphate buffered saline (PBS) before dilution to the correct inoculum for infection. Cell counts were determined using a haemocytometer and confirmed by quantitative culture on Sabouraud dextrose agar.
Rats were infected with 0.1 mL by intravaginal administration under inhaled isoflurane anaesthesia using about 9.8×10^5 CFU/mL (9.8×10^4 CFU/Rat) C. albicans strain 529L
Treatment. […] The fluconazole treatment also started at 24 h post infection but was administered by the PO route at the dose volume and frequency shown in Table 7. The study design is further outlined in FIG. 19.
Reduction in weight and general loss of condition due to estradiol treatment are also typical in this rat model. Colonization with C. albicans was determined by quantitative culture of daily vaginal lavage samples. Rats were euthanized 9 days post infection and C. albicans determined by quantitative culture of vaginal tissue (including uterine horns).
Lavage samples were obtained on Days 1 (pre-treatment), 2, 3, 5, 7, and 9 days post infection by flushing rat vaginas 4 times with 0.1 mL pre-warmed sterile PBS. Following euthanasia, vaginal tissue including uterine horns was removed prior to weighing. Tissues were homogenized in 2 mL sterile PBS using a bead-beater. Vaginal wash and tissue homogenates were diluted appropriately then quantitatively cultured on to Sabouraud dextrose agar containing 0.05 mg/mL chloramphenicol and incubated at 37° C. for up to 72 h before being counted.
Statistical analysis. Data were analyzed using StatsDirect software (version 2.7.8) using the non-parametric Kruskal-Wallis test and if this was statistically significant all pairwise comparisons were analyzed (Conover-Inman).

[1] = lavage Day 1 post treatment (Day 2 post infection), 5 mg/kg SC dosed once
[2] = lavage Day 1 post treatment (Day 2 post infection), 5 mg/kg SC dosed twice
[3] = lavage Day 1 post treatment (Day 2 post infection), 10 mg/kg SC dosed once
[4] = lavage Day 2 post treatment (Day 3 post infection), 5 mg/kg SC dosed once
[5] = lavage Day 2 post treatment (Day 3 post infection), 5 mg/kg SC dosed twice
[6] = lavage Day 2 post treatment (Day 3 post infection), 10 mg/kg SC dosed once
[7] = lavage Day 4 post treatment (Day 5 post infection), 5 mg/kg SC dosed once
[8] = lavage Day 4 post treatment (Day 5 post infection), 5 mg/kg SC dosed twice
[9] = lavage Day 4 post treatment (Day 5 post infection), 10 mg/kg SC dosed once
[10] = lavage Day 5 post infection, 10 mg/kg SC once
[11] = lavage Day 6 post treatment (Day 7 post infection), 5 mg/kg SC dosed once
[12] = lavage Day 6 post treatment (Day 7 post infection), 5 mg/kg SC dosed twice
[13] = lavage Day 6 post treatment (Day 7 post infection), 10 mg/kg SC dosed once
[14] = lavage Day 8 post treatment (Day 9 post infection), 5 mg/kg SC dosed once
[15] = lavage Day 8 post treatment (Day 9 post infection), 5 mg/kg SC dosed twice
[16] = lavage Day 8 post treatment (Day 9 post infection), 10 mg/kg SC dosed once
[17] = terminal vaginal tissue (vagina, uterus, uterine horns) Day +9 post infection, 5 mg/kg SC dosed once
[18] = terminal vaginal tissue Day +9 post infection, 5 mg/kg SC dosed twice
[19] = terminal vaginal tissue Day +9 post infection, 10 mg/kg SC dosed once
[20] = vaginal lavage Day 1 post infection, pre-treatment, 5 mg/kg SC dosed once group
[21] = vaginal lavage Day 1 post infection, pre-treatment, 5 mg/kg SC dosed twice group
[22] = vaginal lavage Day 1 post infection, pre-treatment, 10 mg/kg SC dosed once group

## CCCCCOc1ccc(-c2ccc(-c3ccc(C(=O)N[C@H]4C[C@@H](O)[C@@H](OCC[N+](C)(C)C)NC(=O)C5C(O)[C@@H](C)CN5C(=O)[C@H]([C@@H](C)O)NC(=O)[C@H]([C@H](O)[C@@H](O)c5ccc(O)cc5)NC(=O)[C@@H]5C[C@@H](O)CN5C(=O)C(C(C)O)NC4=O)cc3)cc2)cc1 (stereo partly drawn) [CD101] ({pTerphenylCO(4''-OnC5H11)}-[Orn(4R-OH,5R-OCH2CH2NMe3+)][ξT][Hyp][hTyr(3S-OH,4S-OH)]T[X1]; lactam 1-C)
5 mg/kg SC once, Day 9
  reduction in terminal vaginal tissue burden: about 0.4 Log10 CFU/g
5 mg/kg SC twice, Day 9
  reduction in terminal vaginal tissue burden: about 0.9 Log10 CFU/g
10 mg/kg SC once, Day 9
  rats with tissue burdens below the levels of detection: 5/6
10 mg/kg SC once, all but one rat, Day 9
  CFU: undetectable CFU
[1]
  Group Geometric mean: 3.34 × 10^2 CFU/mL
  Log Group Geometric mean: 2.52 CFU/mL
  Log reduction from vehicle control: 1.17 CFU/mL
[2]
  Group Geometric mean: 2.56 × 10^2 CFU/mL
  Log Group Geometric mean: 2.41 CFU/mL
  Log reduction from vehicle control: 1.29 CFU/mL
[3]
  Group Geometric mean: 2.48 × 10^2 CFU/mL
  Log Group Geometric mean: 2.39 CFU/mL
  Log reduction from vehicle control: 1.30 CFU/mL
Lavage Day 2 post infection
  burden vs vehicle, statistics: neither the CD101 nor fluconazole burden was statistically different from the vehicle burden
Lavage Day 2 post infection, all doses of CD101
  reduction in burden: about 1.3 Log10 CFU/mL
[4]
  Group Geometric mean: 1.21 × 10^2 CFU/mL
  Log Group Geometric mean: 2.08 CFU/mL
  Log reduction from vehicle control: 1.49 CFU/mL
[5]
  Group Geometric mean: 1.95 × 10^2 CFU/mL
  Log Group Geometric mean: 2.29 CFU/mL
  Log reduction from vehicle control: 1.28 CFU/mL
[6]
  Group Geometric mean: 23.2 CFU/mL
  Log Group Geometric mean: 1.37 CFU/mL
  Log reduction from vehicle control: 2.21 CFU/mL
Lavage Day 3 post infection, all treatments
  burden vs vehicle, statistics: statistically different from the vehicle treatments
[7]
  Group Geometric mean: 1.70 × 10^3 CFU/mL
  Log Group Geometric mean: 3.23 CFU/mL
  Log reduction from vehicle control: 0.99 CFU/mL
[8]
  Group Geometric mean: 1.73 × 10^3 CFU/mL
  Log Group Geometric mean: 3.24 CFU/mL
  Log reduction from vehicle control: 0.98 CFU/mL
[9]
  Group Geometric mean: 1.73 CFU/mL
  Log Group Geometric mean: 0.24 CFU/mL
  Log reduction from vehicle control: 3.98 CFU/mL
Lavage Day 5 post infection, 5 mg/kg SC once or twice, not statistically different from vehicle
  burden reduced to: about 1 Log10 CFU/m
[10]
  burden reduced to: about 4 Logo CFU/mL
  rats having burden below the limit of detection: 5/6
[11]
  Group Geometric mean: 4.56 × 10^3 CFU/mL
  Log Group Geometric mean: 3.66 CFU/mL
  Log reduction from vehicle control: 0.52 CFU/mL
[12]
  Group Geometric mean: 6.47 × 10^2 CFU/mL
  Log Group Geometric mean: 2.81 CFU/mL
  Log reduction from vehicle control: 1.37 CFU/mL
[13]
  Group Geometric mean: 2.59 CFU/mL
  Log Group Geometric mean: 0.41 CFU/mL
  Log reduction from vehicle control: 3.77 CFU/mL
[14]
  Group Geometric mean: 4.58 × 10^3 CFU/mL
  Log Group Geometric mean: 3.66 CFU/mL
  Log reduction from vehicle control: 0.64 CFU/mL
[15]
  Group Geometric mean: 1.28 × 10^3 CFU/mL
  Log Group Geometric mean: 3.11 CFU/mL
  Log reduction from vehicle control: 1.19 CFU/mL
[16]
  Group Geometric mean: 2.75 CFU/mL
  Log Group Geometric mean: 0.44 CFU/mL
  Log reduction from vehicle control: 3.86 CFU/mL
[17]
  Group Geometric mean: 1.37 × 10^5 CFU/g
  Log Group Geometric mean: 5.14 CFU/g
  Log reduction from vehicle control: 0.36 CFU/g
[18]
  Group Geometric mean: 4.00 × 10^4 CFU/g
  Log Group Geometric mean: 4.60 CFU/g
  Log reduction from vehicle control: 0.89 CFU/g
[19]
  Group Geometric mean: 5.52 CFU/g
  Log Group Geometric mean: 0.74 CFU/g
  Log reduction from vehicle control: 4.75 CFU/g
[20]
  Group Geometric mean: 9.11 × 10^2 CFU/mL
  Log Group Geometric mean: 2.96 CFU/mL
  Log reduction from vehicle control: −0.52 CFU/mL
[21]
  Group Geometric mean: 1.83 × 10^3 CFU/mL
  Log Group Geometric mean: 3.26 CFU/mL
  Log reduction from vehicle control: −0.83 CFU/mL
[22]
  Group Geometric mean: 3.68 × 10^2 CFU/mL
  Log Group Geometric mean: 2.57 CFU/mL
  Log reduction from vehicle control: −0.13 CFU/mL
